The target of data set [1] is T1, recombinant Falcipain-2 (FP-2) (Plasmodium falciparum, UniProt Q8I6U4).
T1 construct: made in house
T1 sequence (Q8I6U4 244-484): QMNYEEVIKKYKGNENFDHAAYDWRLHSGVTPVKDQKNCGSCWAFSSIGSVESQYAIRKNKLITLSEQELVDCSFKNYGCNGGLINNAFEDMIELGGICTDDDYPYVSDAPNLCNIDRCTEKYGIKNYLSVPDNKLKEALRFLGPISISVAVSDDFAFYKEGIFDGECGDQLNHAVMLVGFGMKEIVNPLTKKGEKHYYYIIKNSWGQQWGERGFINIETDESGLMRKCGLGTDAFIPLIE
The data set can be described thus: Falcipain-2 enzyme inhibition assay (fluorogenic substrate Z-Leu-Arg-AMC). The following applies: for IC50 / inhibition at 10 µM: FP-2 30 nM, pH 5.5, 30 min preincubation; for IC50: substrate Z-Leu-Arg-AMC 25 μM; for inhibition at 10 µM: pH 5.5, compound at 10 μM, substrate 25 μM, read-out: Inhibition rate at 10 μM (%). It counts as biochemical. The procedure:
For the primary assay, the percent inhibitions of the compounds at 10 μM were measured. […] Therefore, we determined their IC50 values (Table 1).
The purification and refolding of recombinant protein Falcipain-2 was performed as described by Shenai et al. IC50 values against recombinant Falcipain-2 were determined as described previously. FP-2 (30 nM) was incubated for 30 min at room temperature in 100 mM sodium acetate, pH 5.5, 10 mM DTT, with different concentrations of tested inhibitors. Inhibitor solutions were prepared from stock in DMSO (maximum concentration of DMSO in the assay was 1%). After 30 min incubation, the substrate Z-Leu-Arg-AMC (benzoxycarbonyl-Leu-Arg-7-amino-4-methylcoumarin, Bachem AG) in the same buffer was added to a final concentration of 25 μM. The increase in fluorescence (excitation at 355 nm and emission at 460 nm) was monitored for 30 min at room temperature with an automated microtiter plate spectrofluorimeter (Molecular Devices, Flex station). Half-maximal inhibitory concentration (IC50) was determined from plots of percent activity over compound concentration using GraphPad Prism software.

The structures appear in SMILES notation.

Consider `C=CCn1c(SCC(=O)Nc2sc3c(c2C(N)=O)CCC3)nc2scc(-c3ccccc3)c2c1=O` [Compound 1, 2-(2-(3-Allyl-3,4-dihydro-4-oxo-5-phenylthieno[2,3-d]pyrimidin-2-ylthio)acetamido)-5,6-dihydro-4H-cyclopenta[b]thiophene-3-carboxamide], for which, in data set [1], the IC50 is 2.81 µM and the inhibition at 10 µM came to 88.7%.
With `NC(=O)c1c(NC(=O)CSc2nc3scc(-c4ccccc4)c3c(=O)n2C2CCCCC2)sc2c1CCC2` [Compound 2a, 2-(2-(3-Cyclohexyl-3,4-dihydro-4-oxo-5-phenylthieno[2,3-d]pyrimidin-2-ylthio)acetamido)-5,6-dihydro-4H-cyclopenta[b]thiophene-3-carboxamide], in data set [1], the IC50 turned out to be 1.46 µM and the inhibition at 10 µM is over 90%. Besides, the “inhibitory activity relative to prototype compound 1 (times greater)” value in data set [1] (ratio of IC50s against FP-2 versus compound 1) is on record as ~ 2 times.
In turn, `NC(=O)c1c(NC(=O)CSc2nc3scc(-c4ccccc4)c3c(=O)n2-c2cccc(F)c2)sc2c1CCC2` [Compound 2b] displayed a melting point of 234 to 239 °C. In addition, in data set [1], the IC50 worked out at 2.05 µM and the inhibition at 10 µM was found to be 79%.
`NC(=O)c1c(NC(=O)CSc2nc3scc(-c4ccccc4)c3c(=O)n2-c2ccc([N+](=O)[O-])cc2)sc2c1CCC2` [Compound 2c] registered a melting point of 271 to 274 °C. In data set [1], the IC50 was 2.77 µM and the inhibition at 10 µM worked out at 85.4%.
On to `NC(=O)c1c(NC(=O)CSc2nc3scc(-c4ccccc4)c3c(=O)n2-c2ccc(Cl)cc2)sc2c1CCC2` [Compound 2d], for which the melting point lay within 247 to 249 °C. In data set [1], the IC50 came out at 4.3 µM and the inhibition at 10 µM was found to be 84.7%.
For the molecule `NC(=O)c1c(NC(=O)CSc2nc3scc(-c4ccccc4)c3c(=O)n2Cc2ccccc2)sc2c1CCC2` [Compound 2e], the melting point was 163 to 167 °C. Further, in data set [1], the IC50 came out at 5.74 µM and the inhibition at 10 µM was over 90%.
As to `C=CCn1c(SCC(=O)Nc2sc3c(c2C(N)=O)CCC3)nc2sc3c(c2c1=O)CCCC3` [Compound 3a], in data set [1], the IC50 was found to be 5.77 µM and the inhibition at 10 µM is 82.2%.
With `C=CCn1c(SCC(=O)Nc2sc3c(c2C(N)=O)CCC3)nc2scc(-c3ccc(Cl)cc3)c2c1=O` [Compound 3b, 2-(2-(3-Allyl-3,4-dihydro-4-oxo-5-(4-chlorophenyl)thieno[2,3-d]pyrimidin-2-ylthio)acetamido)-5,6-dihydro-4H-cyclopenta[b]thiophene-3-carboxamide], in data set [1], the IC50 worked out at 2.95 µM and the inhibition at 10 µM is 85.7%.
On to `C=CCn1c(SCC(=O)Nc2sc3c(c2C(N)=O)CCC3)nc2scc(-c3cccc([N+](=O)[O-])c3)c2c1=O` [Compound 3c, 2-(2-(3-Allyl-3,4-dihydro-4-oxo-5-(3-nitrophenyl)thieno[2,3-d]pyrimidin-2-ylthio)acetamido)-5,6-dihydro-4H-cyclopenta[b]thiophene-3-carboxamide], for which the inhibition at 10 µM in data set [1] stood at 53%.
Molecule `C=CCn1c(SCC(=O)Nc2sc3c(c2C(=O)OCC)CCC3)nc2scc(-c3ccccc3)c2c1=O` [Compound 4a, Ethyl 2-(2-(3-allyl-3,4-dihydro-4-oxo-5-phenylthieno[2,3-d]pyrimidin-2-ylthio)acetamido)-5,6-dihydro-4H-cyclopenta[b]thiophene-3-carboxylate] came in with a melting point of 166 to 170 °C. For the same molecule, in data set [1], the IC50 is 6.63 µM and the inhibition at 10 µM was determined as 93.3%.
As for `C=CCn1c(SCC(=O)Nc2ccc(C(=O)OCC)cc2)nc2scc(-c3ccccc3)c2c1=O` [Compound 4b, Ethyl 4-(2-(3-allyl-3,4-dihydro-4-oxo-5-phenylthieno[2,3-d]pyrimidin-2-ylthio)acetamido) benzoate], in data set [1], the IC50 amounted to 5.7 µM and the inhibition at 10 µM turned out to be 94.3%.
`C=CCn1c(SCC(=O)Nc2nc3ccccc3s2)nc2scc(-c3ccccc3)c2c1=O` [Compound 4c, 2-(3-Allyl-3,4-dihydro-4-oxo-5-phenylthieno[2,3-d]pyrimidin-2-ylthio)-N-(benzo[d]thiazol-2-yl)-acetamide]: the melting point is 192 to 194 °C. Further, in data set [1], the IC50 is 3.31 µM and the inhibition at 10 µM was found to be 90.3%.
Take `C=CCn1c(SCC(=O)Nc2sc3c(c2C(N)=O)CCCC3)nc2scc(-c3ccccc3)c2c1=O` [Compound 4d, 2-(2-(3-Alyl-3,4-dihydro-4-oxo-5-phenylthieno[2,3-d]pyrimidin-2-ylthio)acetamido)-4,5,6,7-tetra-hydrobenzo[b]thiophene-3-carboxamide]: the melting point fell in the range of 212 to 214 °C.
`C=CCn1c(SCC(=O)Nc2sc(C(=O)OCC)c(C)c2C(N)=O)nc2scc(-c3ccccc3)c2c1=O` [Compound 4e, Ethyl 5-(2-(3-allyl-3,4-dihydro-4-oxo-5-phenylthieno[2,3-d]pyrimidin-2-ylthio)acetamido)-4-carbamoyl-3-methylthiophene-2-carboxylate] showed a melting point of 136 to 140 °C. In addition, in data set [1], the concentration for half-maximal inhibition (IC50) amounted to 5.58 µM and the inhibition at 10 µM came out at 72%.
Regarding `C=CCn1c(SCC(=O)Nc2ccc(F)c(Cl)c2)nc2scc(-c3ccccc3)c2c1=O` [Compound 4f, 2-(3-Allyl-3,4-dihydro-4-oxo-5-phenylthieno[2,3-d]pyrimidin-2-ylthio)-N-(3-chloro-4-fluorophenyl)-acetamide], in data set [1], the IC50 amounted to 5.43 µM and the inhibition at 10 µM is over 90%.

The IC50 is the concentration needed to halve the response being measured. For orientation: inhibition means the drop in the measured response relative to a control, in per cent. The term melting point denotes the temperature of the solid-liquid transition.
